Laboratory results published in patent US20250154138A1, “Small Molecule IL-17A Modulators” (BeiGene, Ltd., priority 2022, published 2025).

Columns and labels:
[1] = biological target: human IL-17A / human IL-17RA (Homo sapiens (Human), UniProt Q16552); assay: Human IL-17A biochemical assay (HTRF, blocking of IL-17A binding to IL-17RA); settings: 0.4 nM IL-17A, 0.3 nM IL-17RA, max compound concentration 10 uM
How it was run: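 0.4 nM hIL-17A + cpd (10 uM top, 2.7x, 10 pt), 3 h RT, HEPES pH 7.5 buffer w/ BSA, DTT, Tween 20; + 0.3 nM hIL-17RA 1 h RT; Tb/XL665 Abs 1 h; HTRF 620/665 ratio; 4PL IC50.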

[2] = test system: IL-17-induced GROα secretion from HT-29 cells; assay: GROα release assay in human colorectal adenocarcinoma epithelial cell (HT-29, ELISA); format: cell-based; settings: Homo sapiens, HT-29, 48 h, 10 ng/mL IL-17A, highest concentration 10 μM, read-out: Cellular assay HT29 cell/CXCL1 IC50
How it was run: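 HT-29 cells were exposed 48 h at 37°C to IL-17A (final 10 ng/mL) preincubated 15 min with compound (4-fold dilutions, top 10 μM). Secreted GROα was quantified by ELISA against a standard curve, and IC50 obtained by four-parameter fitting.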

Sequence of human IL-17A / human IL-17RA (Q16552 24-155): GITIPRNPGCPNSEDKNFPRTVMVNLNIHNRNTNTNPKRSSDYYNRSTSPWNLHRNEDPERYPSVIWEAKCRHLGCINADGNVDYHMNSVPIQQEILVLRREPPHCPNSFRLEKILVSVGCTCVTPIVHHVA

| Structure (SMILES) | IC50 [1] [nM] | IC50 [2] [nM] |
| --- | --- | --- |
| Cc1nonc1C(=O)N[C@H](C(=O)Nc1ccc2c(c1)CC(Cc1ccc(F)cc1)(N1C[C@@H](C(C)C)NC1=O)C2)C(C1CC1)C1CC1 (stereo partly drawn) [Example 241, N-((2S)-1,1-dicyclopropyl-3-((2-(4-fluorobenzyl)-2-((R)-4-isopropyl-2-oxoimidazolidin-1-yl)-2,3-dihydro-1H-inden-5-yl)amino)-3-oxopropan-2-yl)-4-methyl-1,2,5-oxadiazole-3-carboxamide] | 2920 | 5800 |
| Cc1nonc1C(=O)N[C@H](C(=O)Nc1ccc2c(c1)CC(C(=O)NC1(c3cc(F)ccc3F)CC1)(N1CC3(CC3)CNC1=O)C2)C1CCC(F)(F)CC1 (stereo partly drawn) [Example 233, N-((1S)-1-(4,4-difluorocyclohexyl)-2-((2-((1-(2,5-difluorophenyl)cyclopropyl)carbamoyl)-2-(6-oxo-5,7-diazaspiro[2.5]octan-5-yl)-2,3-dihydro-1H-inden-5-yl)amino)-2-oxoethyl)-4-methyl-1,2,5-oxadiazole-3-carboxamide] | 77.8 | 90.1 |
| CNC(=O)C1(N2CC3(CC3)CNC2=O)Cc2ccc(NC(=O)[C@@H](NC(=O)c3cc(C#N)cn3C)C3CCCCC3)cc2C1 (stereo partly drawn) [Example 130, 4-cyano-N-((1S)-1-cyclohexyl-2-((2-(methylcarbamoyl)-2-(6-oxo-5,7-diazaspiro[2.5]octan-5-yl)-2,3-dihydro-1H-inden-5-yl)amino)-2-oxoethyl)-1-methyl-1H-pyrrole-2-carboxamide] | 19 | 59.6 |
| CC(C)[C@@H]1CC(C2Cc3ccc(NC(=O)[C@@H](NC(=O)c4ccnn4C)C4CCCCC4)cc3C2)C(=O)N1 (stereo partly drawn) [Example 209, N-((1S)-1-cyclohexyl-2-((2-((5S)-5-isopropyl-2-oxopyrrolidin-3-yl)-2,3-dihydro-1H-inden-5-yl)amino)-2-oxoethyl)-1-methyl-1H-pyrazole-5-carboxamide] | 1060 | 2180 |
| Cc1nonc1C(=O)N[C@H](C(=O)Nc1ccc2c(c1)CC(C(=O)O)(N1CC3(CC3)CNC1=O)C2)C1CCC(F)(F)CC1 (stereo partly drawn) [Example 188, 5-((S)-2-(4,4-difluorocyclohexyl)-2-(4-methyl-1,2,5-oxadiazole-3-carboxamido)acetamido)-2-(6-oxo-5,7-diazaspiro[2.5]octan-5-yl)-2,3-dihydro-1H-indene-2-carboxylic acid] | 44.9 | 450 |
| Cc1nonc1C(=O)N[C@H](C(=O)Nc1ccc2c(c1)CC(N1C[C@@H](C(F)(F)F)NC1=O)C2)C1CCC(F)(F)CC1 (stereo partly drawn) [Example 178, N-((1S)-1-(4,4-difluorocyclohexyl)-2-oxo-2-((2-((S)-2-oxo-4-(trifluoromethyl)imidazolidin-1-yl)-2,3-dihydro-1H-inden-5-yl)amino)ethyl)-4-methyl-1,2,5-oxadiazole-3-carboxamide] | 3650 | 2210 |
| Cc1nonc1C(=O)N[C@H](C(=O)Nc1ccc2c(c1)CC(C(=O)Nc1cccc(F)c1)(N1CC3(CC3)CNC1=O)C2)C1CCC(F)(F)CC1 (stereo partly drawn) [Example 203, N-((1S)-1-(4,4-difluorocyclohexyl)-2-((2-((3-fluorophenyl)carbamoyl)-2-(6-oxo-5,7-diazaspiro[2.5]octan-5-yl)-2,3-dihydro-1H-inden-5-yl)amino)-2-oxoethyl)-4-methyl-1,2,5-oxadiazole-3-carboxamide] | 63.9 | 135 |
| Cn1nccc1C(=O)N[C@H](C(=O)Nc1ccc2c(c1)CC(N1C[C@@H](C(F)(F)F)NC1=O)C2)C(C1CC1)C1CC1 (stereo partly drawn) [Example 197, N-((2S)-1,1-dicyclopropyl-3-oxo-3-((2-((S)-2-oxo-4-(trifluoromethyl)imidazolidin-1-yl)-2,3-dihydro-1H-inden-5-yl)amino)propan-2-yl)-1-methyl-1H-pyrazole-5-carboxamide] | 80.6 | 397 |
| CNC(=O)C1(N2C[C@@H](C(C)C)NC2=O)Cc2ccc(NC(=O)C(NC(=O)c3ccnn3C)C3CCc4cc(Cl)ccc4C3)cc2C1 (stereo partly drawn) [Example 186, N-(1-(6-chloro-1,2,3,4-tetrahydronaphthalen-2-yl)-2-((2-((R)-4-isopropyl-2-oxoimidazolidin-1-yl)-2-(methylcarbamoyl)-2,3-dihydro-1H-inden-5-yl)amino)-2-oxoethyl)-1-methyl-1H-pyrazole-5-carboxamide] | 6.3 | 15.1 |
| CNC(=O)C1(N2C[C@@H](C(C)C)NC2=O)Cc2ccc(NC(=O)C(NC(=O)c3ccnn3C)C3CCC(C)CC3)cc2C1 (stereo partly drawn) [Example 89, N-(2-((2-((R)-4-isopropyl-2-oxoimidazolidin-1-yl)-2-(methylcarbamoyl)-2,3-dihydro-1H-inden-5-yl)amino)-1-(4-methylcyclohexyl)-2-oxoethyl)-1-methyl-1H-pyrazole-5-carboxamide] | 18 | 29.7 |
| CC(C)[C@@H]1CN(C2(C(N)=O)Cc3ccc(NC(=O)[C@@H](NC(=O)c4ccnn4C)C4CCCCCC4)cc3C2)C(=O)N1 (stereo partly drawn) [Example 83, N-((1S)-2-((2-carbamoyl-2-((R)-4-isopropyl-2-oxoimidazolidin-1-yl)-2,3-dihydro-1H-inden-5-yl)amino)-1-cycloheptyl-2-oxoethyl)-1-methyl-1H-pyrazole-5-carboxamide] | 22 | 190 |
| Cc1nonc1C(=O)N[C@H](C(=O)Nc1ccc2c(c1)OC(C(C)N1C[C@@H](C(F)(F)F)NC1=O)C2)C(C1CC1)C1CC1 (stereo partly drawn) [Example 276, N-((2S)-1,1-dicyclopropyl-3-oxo-3-((2-(1-((S)-2-oxo-4-(trifluoromethyl)imidazolidin-1-yl)ethyl)-2,3-dihydrobenzofuran-6-yl)amino)propan-2-yl)-4-methyl-1,2,5-oxadiazole-3-carboxamide] | 573 | 1460 |
| CNC(=O)C1(N2CC(C)(C)CNC2=O)Cc2ccc(NC(=O)[C@@H](NC(=O)c3ccnn3C)C3CCCCC3)cc2C1 (stereo partly drawn) [Example 70, N-((1S)-1-cyclohexyl-2-((2-(5,5-dimethyl-2-oxotetrahydropyrimidin-1(2H)-yl)-2-(methylcarbamoyl)-2,3-dihydro-1H-inden-5-yl)amino)-2-oxoethyl)-1-methyl-1H-pyrazole-5-carboxamide] | 26 | 70.6 |
| CNC(=O)C1(N2C[C@@H](C(C)C)NC2=O)CCc2cc3[nH]c([C@@H](NC(=O)c4ccnn4C)C4CCCCC4)nc3cc2C1 (stereo partly drawn) [Example 123, 2-((S)-cyclohexyl(1-methyl-1H-pyrazole-5-carboxamido)methyl)-6-((R)-4-isopropyl-2-oxoimidazolidin-1-yl)-N-methyl-5,6,7,8-tetrahydro-1H-naphtho[2,3-d]imidazole-6-carboxamide] | 441 | 61.6 |
| CNC(=O)C1(N2CC(Cc3ccc(Cl)cc3)NC2=O)Cc2ccc(NC(=O)[C@@H](NC(=O)c3ccnn3C)C3CCCCC3)cc2C1 (stereo partly drawn) [Example 74, N-((1S)-2-((2-(4-(4-chlorobenzyl)-2-oxoimidazolidin-1-yl)-2-(methylcarbamoyl)-2,3-dihydro-1H-inden-5-yl)amino)-1-cyclohexyl-2-oxoethyl)-1-methyl-1H-pyrazole-5-carboxamide] | 32 | 342 |
| CNC(=O)C1(N2C[C@@H](C(C)C)NC2=O)Cc2ccc(NC(=O)[C@@H](NC(=O)c3ccnn3CCO)C3CCCCC3)cc2C1 (stereo partly drawn) [Example 126, N-((1S)-1-cyclohexyl-2-((2-((R)-4-isopropyl-2-oxoimidazolidin-1-yl)-2-(methylcarbamoyl)-2,3-dihydro-1H-inden-5-yl)amino)-2-oxoethyl)-1-(2-hydroxyethyl)-1H-pyrazole-5-carboxamide] | 72 | 3960 |
| CCC(CC)OC(=O)C1(N2CC3(CC3)CNC2=O)Cc2ccc(NC(=O)[C@@H](NC(=O)c3nonc3C)C3CCC(F)(F)CC3)cc2C1 (stereo partly drawn) [Example 207, pentan-3-yl 5-((S)-2-(4,4-difluorocyclohexyl)-2-(4-methyl-1,2,5-oxadiazole-3-carboxamido)acetamido)-2-(6-oxo-5,7-diazaspiro[2.5]octan-5-yl)-2,3-dihydro-1H-indene-2-carboxylate] | 347 | 861 |
| Cc1nonc1C(=O)N[C@H](C(=O)Nc1ccc2c(c1)CC(C(=O)Nc1ccccc1)(N1C[C@@H](C(C)C)NC1=O)C2)C1CCC(F)(F)CC1 (stereo partly drawn) [Example 242, N-((1S)-1-(4,4-difluorocyclohexyl)-2-((2-((R)-4-isopropyl-2-oxoimidazolidin-1-yl)-2-(phenylcarbamoyl)-2,3-dihydro-1H-inden-5-yl)amino)-2-oxoethyl)-4-methyl-1,2,5-oxadiazole-3-carboxamide] | 250 | 652 |
| CC[C@H]1CC[C@H]([C@H](NC(=O)c2ccnn2C)C(=O)Nc2ccc3c(c2)CC(C(=O)NC)(N2CC4(CC4)CNC2=O)C3)CC1 (stereo partly drawn) [Example 171, N-((1S)-1-((1r,4S)-4-ethylcyclohexyl)-2-((2-(methylcarbamoyl)-2-(6-oxo-5,7-diazaspiro[2.5]octan-5-yl)-2,3-dihydro-1H-inden-5-yl)amino)-2-oxoethyl)-1-methyl-1H-pyrazole-5-carboxamide] | 7 | 9.7 |
| CC(C)n1nccc1C(=O)N[C@H](C(=O)Nc1ccc2c(c1)CC(c1ncc(-c3ccccc3)[nH]1)(N1CC3(CC3)CNC1=O)C2)C(C1CC1)C1CC1 (stereo partly drawn) [Example 206, N-((2S)-1,1-dicyclopropyl-3-oxo-3-((2-(6-oxo-5,7-diazaspiro[2.5]octan-5-yl)-2-(5-phenyl-1H-imidazol-2-yl)-2,3-dihydro-1H-inden-5-yl)amino)propan-2-yl)-1-isopropyl-1H-pyrazole-5-carboxamide] | 270 | 32.5 |
